Results: patent US10722514B2 (FLX Bio, Inc., priority 2017, dated 2020)
Structures can show the parent of a compound that is named as a salt.

Target: T1, recombinant full-length USP7 (Homo sapiens, UniProt Q93009)
T1 construct: A 25 μl reaction volume containing recombinant full-length USP7 (62 pM)
Experiment: USP7-mediated ubiquitin-rhodamine cleavage assay
Assay type: biochemical
Conditions: recombinant full-length USP7 62 pM; ubiquitin-rhodamine 100 nM; 30-minute incubation with compound, 1 hour reaction at room temperature; read-out: Potency: USP7 IC50
Method in brief: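 Full-length recombinant USP7 (62 pM) in 20 mM HEPES pH 7.3, 150 mM NaCl, 1 mM TCEP, 125 μg/ml BSA, 1% DMSO, preincubated with compound 30 min at RT. Ubiquitin-rhodamine (100 nM final) cleaved 1 h at RT in the dark, stopped with acetic acid; rhodamine fluorescence read, IC50 by 4-parameter nonlinear fit.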

T1 sequence (Q93009 whole entry): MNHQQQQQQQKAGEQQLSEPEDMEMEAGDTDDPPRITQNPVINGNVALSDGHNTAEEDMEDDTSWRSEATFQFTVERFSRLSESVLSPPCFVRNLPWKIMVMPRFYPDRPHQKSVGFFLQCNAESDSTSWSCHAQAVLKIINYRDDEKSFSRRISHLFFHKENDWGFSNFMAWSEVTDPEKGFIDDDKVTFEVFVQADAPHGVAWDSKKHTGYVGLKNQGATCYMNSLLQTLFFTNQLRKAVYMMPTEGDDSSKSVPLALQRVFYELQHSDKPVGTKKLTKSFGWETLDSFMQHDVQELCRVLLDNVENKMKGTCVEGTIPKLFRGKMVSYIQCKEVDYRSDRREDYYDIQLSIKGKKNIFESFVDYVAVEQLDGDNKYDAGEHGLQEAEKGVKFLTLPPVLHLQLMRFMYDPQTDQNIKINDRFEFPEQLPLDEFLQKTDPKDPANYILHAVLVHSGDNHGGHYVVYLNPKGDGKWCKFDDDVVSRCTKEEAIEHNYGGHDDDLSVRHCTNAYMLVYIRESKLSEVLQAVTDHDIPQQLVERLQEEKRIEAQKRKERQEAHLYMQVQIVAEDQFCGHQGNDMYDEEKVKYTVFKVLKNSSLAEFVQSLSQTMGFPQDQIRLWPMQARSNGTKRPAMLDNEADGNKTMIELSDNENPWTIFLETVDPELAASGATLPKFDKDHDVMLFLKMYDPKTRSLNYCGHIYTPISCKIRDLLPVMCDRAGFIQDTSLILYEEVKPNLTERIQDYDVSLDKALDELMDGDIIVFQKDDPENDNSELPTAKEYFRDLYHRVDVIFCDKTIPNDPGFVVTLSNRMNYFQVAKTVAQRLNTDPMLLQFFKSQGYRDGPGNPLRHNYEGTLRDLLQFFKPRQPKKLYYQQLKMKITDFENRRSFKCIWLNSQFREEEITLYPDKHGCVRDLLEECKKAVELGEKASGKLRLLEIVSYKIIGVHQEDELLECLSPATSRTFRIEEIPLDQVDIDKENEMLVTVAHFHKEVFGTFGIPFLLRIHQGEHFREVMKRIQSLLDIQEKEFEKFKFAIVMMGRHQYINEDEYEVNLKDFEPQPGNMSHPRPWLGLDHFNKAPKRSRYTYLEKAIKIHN

IC50	Compound
< 1 µM	Cc1cc(Cl)cc(-c2ncnc3cc(CN4C(=O)CCC4=O)sc23)c1O[C@H]1CCCNC1 [Example 230, (S)-1-((4-(5-Chloro-3-methyl-2-(piperidin-3-yloxy)phenyl)thieno[3,2-d]pyrimidin-6-yl)methyl)pyrrolidine-2,5-dione]
< 1 µM	Cc1cc(Cl)cc(-c2ncnc3cc(CN4C(=O)CCCC4=O)sc23)c1O[C@@H]1CNC[C@@H]1F [Example 134, 1-((4-(5-Chloro-2-(((3R,4S)-4-fluoropyrrolidin-3-yl)oxy)-3-methylphenyl)thieno[3,2-d]pyrimidin-6-yl)methyl)piperidine-2,6-dione]
< 1 µM	Cc1cc(Cl)cc(-c2ccnc3cc(CN4C(=O)CCC4=O)sc23)c1O[C@@H]1CN(CCO)C[C@@H]1F [Example 302, 1-[[7-[5-chloro-2-[(3R,4S)-4-fluoro-1-(2-hydroxyethyl)pyrrolidin-3-yl]oxy-3-methyl-phenyl]thieno[3,2-b]pyridin-2-yl]methyl]pyrrolidine-2,5-dione]
< 1 µM	Cc1cc(Cl)cc(-c2ncnc3cc(CN4C(=O)CCC4=O)sc23)c1O[C@@H]1CCNC[C@H]1F [Example 306, 1-[[4-[5-chloro-2-[[(3R,4R)-3-fluoro-4-piperidyl]oxy]-3-methyl-phenyl]thieno[3,2-d]pyrimidin-6-yl]methyl]pyrrolidine-2,5-dione dihydrochloride]
< 1 µM	Cc1cc(Cl)cc(-c2ncnc3cc(CN4C(=O)C5C(C4=O)C5(C)C)sc23)c1O[C@@H]1CNCC(C)(C)C1 (stereo partly drawn) [Example 361, 3-[[4-[5-chloro-2-[[(3S)-5,5-dimethyl-3-piperidyl]oxy]-3-methyl-phenyl]thieno[3,2-d]pyrimidin-6-yl]methyl]-6,6-dimethyl-3-azabicyclo[3.1.0]hexane-2,4-dione]
< 1 µM	Cc1cc(Cl)cc(-c2ccnc3cc(CN4C(=O)CCC4=O)sc23)c1OCC1(C#N)CNC1 [Example 12, 3-((4-Chloro-2-(2-((2,5-dioxopyrrolidin-1-yl)methyl)thieno[3,2-b]pyridin-7-yl)-6-methylphenoxy)methyl)azetidine-3-carbonitrile]
< 1 µM	CCN1CC[C@@H](Oc2c(C)cc(Cl)cc2-c2ccnc3cc(CN4C(=O)C5CC5C4=O)sc23)[C@@H](C)C1 (stereo partly drawn) [Example 325, 3-[[7-[5-chloro-2-[[(3S,4R)-1-ethyl-3-methyl-4-piperidyl]oxy]-3-methyl-phenyl]thieno[3,2-b]pyridin-2-yl]methyl]-3-azabicyclo[3.1.0]hexane-2,4-dione]
10 to 30 µM	CO[C@@H]1CNC[C@@H]1Oc1c(C)cc(Cl)cc1-c1ccnc2cc(CO)sc12 [Example 66, (7-(5-Chloro-2-(((3S,4R)-4-methoxypyrrolidin-3-yl)oxy)-3-methylphenyl)thieno[3,2-b]pyridin-2-yl)methanol]
< 1 µM	Cc1cc(C(F)(F)F)cc(-c2ccnc3cc(CN4C(=O)CCC4=O)sc23)c1O[C@@H]1CNC[C@@H]1F [Example 63, 1-((7-(2-(((3R,4S)-4-Fluoropyrrolidin-3-yl)oxy)-3-methyl-5-(trifluoromethyl)phenyl)thieno[3,2-b]pyridin-2-yl)methyl)pyrrolidine-2,5-dione]
< 1 µM	Cc1cc(C#N)cc(-c2ncnc3cc(CN4C(=O)c5ccccc5C4=O)sc23)c1O[C@@H]1CNC[C@@H]1F [Example 110, 3-(6-((1,3-Dioxoisoindolin-2-yl)methyl)thieno[3,2-d]pyrimidin-4-yl)-4-(((3R,4S)-4-fluoropyrrolidin-3-yl)oxy)-5-methylbenzonitrile]
< 1 µM	Cc1cc(Cl)cc(-c2ccnc3cc(CN4C(=O)C5C(C4=O)C5(C)C)sc23)c1OC1CNCC1(C)F (centres unmarked) [Example 372, 3-[[7-[5-chloro-2-(4-fluoro-4-methyl-pyrrolidin-3-yl)oxy-3-methyl-phenyl]thieno[3,2-b]pyridin-2-yl]methyl]-6,6-dimethyl-3-azabicyclo[3.1.0]hexane-2,4-dione dihydrochloride]
< 1 µM	Cc1cc(Cl)cc(-c2ccnc3cc(CN4C(=O)CCC4=O)sc23)c1OC1CCNC(C)(C)C1 (centres unmarked) [Example 205, 1-((7-(5-Chloro-2-((2,2-dimethylpiperidin-4-yl)oxy)-3-methylphenyl)thieno[3,2-b]pyridin-2-yl)methyl)pyrrolidine-2,5-dione]
1 to 10 µM	CCC(O)c1cc2nccc(-c3cc(Cl)cc(C)c3OC3CCCNCC3)c2s1 (centres unmarked) [Example 267, 1-(7-(2-(Azepan-4-yloxy)-5-chloro-3-methylphenyl)thieno[3,2-b]pyridin-2-yl)propan-1-ol]
< 1 µM	CO[C@H]1CNC[C@H]1Oc1c(C)cc(Cl)cc1-c1ccnc2cc(CN3C(=O)C4C(C3=O)C4(C)C)sc12 (stereo partly drawn) [Example 388, 3-[[7-[5-chloro-2-[(3R,4S)-4-methoxypyrrolidin-3-yl]oxy-3-methyl-phenyl]thieno[3,2-b]pyridin-2-yl]methyl]-6,6-dimethyl-3-azabicyclo[3.1.0]hexane-2,4-dione dihydrochloride]

Same assay, conditions: recombinant full-length USP7 62 pM; ubiquitin-rhodamine 100 nM; 30-minute incubation, 1 hour reaction at room temperature; read-out: Potency (USP7 IC50)

IC50	Compound
< 1 µM	CCN(CC)C(=O)CN1CC[C@@H](Oc2c(C)cc(Cl)cc2-c2ccnc3cc(Cn4c(=O)ccn(CC(F)(F)F)c4=O)sc23)[C@@H](C)C1 [Example 692, 2-[(3S,4R)-4-[4-chloro-2-[2-[[2,6-dioxo-3-(2,2,2-trifluoroethyl)pyrimidin-1-yl]methyl]thieno[3,2-b]pyridin-7-yl]-6-methyl-phenoxy]-3-methyl-1-piperidyl]-N,N-diethyl-acetamide]
< 1 µM	Cc1cc(Cl)cc(-c2ccnc3cc(Cn4c(=O)ccn(CC(F)(F)F)c4=O)sc23)c1OC1CCC(O)CC1 (centres unmarked) [Example 677, 3-[[7-[5-chloro-2-(4-hydroxycyclohexoxy)-3-methyl-phenyl]thieno[3,2-b]pyridin-2-yl]methyl]-1-(2,2,2-trifluoroethyl)pyrimidine-2,4-dione]

Same assay, conditions: recombinant full-length USP7 62 pM; ubiquitin-rhodamine 100 nM; 30-minute pre-incubation, 1 hour reaction at room temperature; read-out: Potency (USP7 IC50)

IC50	Compound
< 1 µM	Cc1cc(Cl)cc(-c2ncnc3cc(Cn4c(=O)ccn(CC(F)(F)F)c4=O)sc23)c1O[C@@H]1CCNC[C@H]1C [Example 561, 3-[[4-[5-chloro-3-methyl-2-[[(3R,4R)-3-methyl-4-piperidyl]oxy]phenyl]thieno[3,2-d]pyrimidin-6-yl]methyl]-1-(2,2,2-trifluoroethyl)pyrimidine-2,4-dione]
< 1 µM	Cc1cc(Cl)cc(-c2ccnc3cc(Cn4c(=O)ccn(C)c4=O)sc23)c1OCC(C)N (centres unmarked) [Example 554, 3-[[7-[2-(2-aminopropoxy)-5-chloro-3-methyl-phenyl]thieno[3,2-b]pyridin-2-yl]methyl]-1-methyl-pyrimidine-2,4-dione; 2,2,2-trifluoroacetic acid]
< 1 µM	CC[C@@H]1C[C@H](Oc2c(C)cc(Cl)cc2-c2ccnc3cc(Cn4c(=O)ccn(C)c4=O)sc23)CCN1 [Example 611, 3-[[7-[5-chloro-2-[[(2R,4R)-2-ethyl-4-piperidyl]oxy]-3-methyl-phenyl]thieno[3,2-b]pyridin-2-yl]methyl]-1-methyl-pyrimidine-2,4-dione]
< 1 µM	Cc1cc(Cl)cc(-c2ccnc3cc(Cn4c(=O)ccn(C)c4=O)sc23)c1OCCN [Example 552, 3-[[7-[2-(2-aminoethoxy)-5-chloro-3-methyl-phenyl]thieno[3,2-b]pyridin-2-yl]methyl]-1-methyl-pyrimidine-2,4-dione; 2,2,2-trifluoroacetic acid]
< 1 µM	Cc1cc(Cl)cc(-c2ccnc3cc(Cn4c(=O)ccn(CC(F)(F)F)c4=O)sc23)c1OC1CNC[C@@]1(C)F (stereo partly drawn) [Example 406, 3-[[7-[5-chloro-2-[(4R)-4-fluoro-4-methyl-pyrrolidin-3-yl]oxy-3-methyl-phenyl]thieno[3,2-b]pyridin-2-yl]methyl]-1-(2,2,2-trifluoroethyl)pyrimidine-2,4-dione; 2,2,2-trifluoroacetic acid]
< 1 µM	Cc1cc(C(F)(F)F)cc(-c2ccnc3cc(Cn4c(=O)c(F)cn(C)c4=O)sc23)c1O[C@H]1CCCNC1 [Example 460, 5-fluoro-1-methyl-3-[[7-[3-methyl-2-[[(3S)-3-piperidyl]oxy]-5-(trifluoromethyl)phenyl]thieno[3,2-b]pyridin-2-yl]methyl]pyrimidine-2,4-dione]
< 1 µM	Cc1cc(Cl)cc(-c2ncnc3cc(CN4C(=O)C5CC5C4=O)sc23)c1OC1CCCNC1 (centres unmarked) [Example 412, 3-[[4-[5-chloro-3-methyl-2-(3-piperidyloxy)phenyl]thieno[3,2-d]pyrimidin-6-yl]methyl]-3-azabicyclo[3.1.0]hexane-2,4-dione]
< 1 µM	Cc1cc(Cl)cc(-c2ccnc3cc(Cn4c(=O)ccn(C)c4=O)sc23)c1O[C@@H]1CCCN[C@@H]1C [Example 468, 3-[[7-[5-chloro-3-methyl-2-[[(2R,3R)-2-methyl-3-piperidyl]oxy]phenyl]thieno[3,2-b]pyridin-2-yl]methyl]-1-methyl-pyrimidine-2,4-dione; 2,2,2-trifluoroacetic acid]

Compound	IC50
Cc1cc(Cl)cc(-c2ncnc3cc(Cn4c(=O)ccn(C(C)C)c4=O)sc23)c1O[C@H]1CC[C@H](N)C1 [Example 542, 3-[[4-[2-[(1S,3S)-3-aminocyclopentoxy]-5-chloro-3-methyl-phenyl]thieno[3,2-d]pyrimidin-6-yl]methyl]-1-isopropyl-pyrimidine-2,4-dione; 2,2,2-trifluoroacetic acid]	< 1 µM
Cc1cc(Cl)cc(-c2ccnc3cc(Cn4c(=O)ccn(CC(F)(F)F)c4=O)sc23)c1OC1CC(N2CCC(F)(F)CC2)C1 (centres unmarked) [Example 668, 3-[[7-[5-chloro-2-[3-(4,4-difluoro-1-piperidyl)cyclobutoxy]-3-methyl-phenyl]thieno[3,2-b]pyridin-2-yl]methyl]-1-(2,2,2-trifluoroethyl)pyrimidine-2,4-dione; 2,2,2-trifluoroacetic acid]	< 1 µM
